Experimental data reported in ChEMBL document CHEMBL3046559, “Sterile oat (Avena sterilis L.) cross-resistance profile to ACCase-inhibiting herbicides in Greece” (2012).

Columns and labels:
Assay type in all cases: functional
Avena sterilis [1] = assay: Herbicidal activity against Avena sterilis accession P14 assessed as weed survival at 8 times field recommended herbicide dose
Avena sterilis [2] = assay: Herbicidal activity against Avena sterilis accession P16 assessed as induction of weed mortality
Avena sterilis [3] = assay: Herbicidal activity against Avena sterilis accession P12 assessed as weed survival at 32 times field recommended herbicide dose
Avena sterilis [4] = assay: Herbicidal activity against Avena sterilis accession P09 assessed as induction of weed mortality
Avena sterilis [5] = assay: Herbicidal activity against Avena sterilis accession P03 assessed as weed survival at 1 times field recommended herbicide dose
Avena sterilis [6] = assay: Herbicidal activity against Avena sterilis accession P20 assessed as weed survival at 16 times field recommended herbicide dose
Avena sterilis [7] = assay: Herbicidal activity against Avena sterilis accession P01 assessed as weed survival at 4 times field recommended herbicide dose
Avena sterilis [8] = assay: Herbicidal activity against Avena sterilis accession P18 assessed as induction of weed mortality
Avena sterilis [9] = assay: Herbicidal activity against Avena sterilis accession P07 assessed as weed survival at 4 times field recommended herbicide dose
Avena sterilis [10] = assay: Herbicidal activity against Avena sterilis accession P10S assessed as weed survival at 1/4 times field recommended herbicide dose
Avena sterilis [11] = assay: Herbicidal activity against Avena sterilis accession P09 assessed as weed survival at 16 times field recommended herbicide dose
Avena sterilis [12] = assay: Herbicidal activity against Avena sterilis accession P03 assessed as weed survival at 4 times field recommended herbicide dose
Avena sterilis [13] = assay: Herbicidal activity against Avena sterilis accession P02 assessed as induction of weed mortality
Avena sterilis [14] = assay: Herbicidal activity against Avena sterilis accession P12 assessed as weed survival at 8 times field recommended herbicide dose
Avena sterilis [15] = assay: Herbicidal activity against Avena sterilis accession P07 assessed as induction of weed mortality
Avena sterilis [16] = assay: Herbicidal activity against Avena sterilis accession P05 assessed as weed survival at 8 times field recommended herbicide dose
Avena sterilis [17] = assay: Herbicidal activity against Avena sterilis accession P15 assessed as weed survival at 16 times field recommended herbicide dose
Avena sterilis [18] = assay: Herbicidal activity against Avena sterilis accession P14 assessed as weed survival at 4 times field recommended herbicide dose
Avena sterilis [19] = assay: Herbicidal activity against Avena sterilis accession P12 assessed as weed survival at 1 times field recommended herbicide dose
Avena sterilis [20] = assay: Herbicidal activity against Avena sterilis accession P09 assessed as weed survival at 8 times field recommended herbicide dose
Avena sterilis [21] = assay: Herbicidal activity against Avena sterilis accession P07 assessed as weed survival at 1 times field recommended herbicide dose
Avena sterilis [22] = assay: Herbicidal activity against Avena sterilis accession P16 assessed as weed survival at 1 times field recommended herbicide dose
Avena sterilis [23] = assay: Herbicidal activity against Avena sterilis accession P14 assessed as weed survival at 32 times field recommended herbicide dose
Avena sterilis [24] = assay: Herbicidal activity against Avena sterilis accession P20 assessed as weed survival at 1 times field recommended herbicide dose
Avena sterilis [25] = assay: Herbicidal activity against Avena sterilis accession P02 assessed as weed survival at 32 times field recommended herbicide dose
Avena sterilis [26] = assay: Herbicidal activity against Avena sterilis accession P14 assessed as weed survival at 16 times field recommended herbicide dose
Avena sterilis [27] = assay: Herbicidal activity against Avena sterilis accession P05 assessed as weed survival at 32 times field recommended herbicide dose
Avena sterilis [28] = assay: Herbicidal activity against Avena sterilis accession P19S assessed as weed survival at 1/32 times field recommended herbicide dose
Avena sterilis [29] = assay: Herbicidal activity against Avena sterilis accession P12 assessed as weed survival at 4 times field recommended herbicide dose
Avena sterilis [30] = assay: Herbicidal activity against Avena sterilis accession P20 assessed as induction of weed mortality
Avena sterilis [31] = assay: Herbicidal activity against Avena sterilis accession P14 assessed as induction of weed mortality
Avena sterilis [32] = assay: Herbicidal activity against Avena sterilis accession P10S assessed as weed survival at 1/32 times field recommended herbicide dose
Avena sterilis [33] = assay: Herbicidal activity against Avena sterilis accession P06S assessed as induction of weed mortality
Avena sterilis [34] = assay: Herbicidal activity against Avena sterilis accession P17 assessed as induction of weed mortality
Avena sterilis [35] = assay: Herbicidal activity against Avena sterilis accession P22 assessed as weed survival at 4 times field recommended herbicide dose
Avena sterilis [36] = assay: Herbicidal activity against Avena sterilis accession P09 assessed as weed survival at 32 times field recommended herbicide dose
Avena sterilis [37] = assay: Herbicidal activity against Avena sterilis accession P15 assessed as weed survival at 32 times field recommended herbicide dose
Avena sterilis [38] = assay: Herbicidal activity against Avena sterilis accession P17 assessed as weed survival at 32 times field recommended herbicide dose
Avena sterilis [39] = assay: Herbicidal activity against Avena sterilis accession P05 assessed as weed survival at 1 times field recommended herbicide dose
Avena sterilis [40] = assay: Herbicidal activity against Avena sterilis accession P18 assessed as weed survival at 8 times field recommended herbicide dose
Avena sterilis [41] = assay: Herbicidal activity against Avena sterilis accession P05 assessed as weed survival at 4 times field recommended herbicide dose
Avena sterilis [42] = assay: Herbicidal activity against Avena sterilis accession P03 assessed as weed survival at 8 times field recommended herbicide dose
Avena sterilis [43] = assay: Herbicidal activity against Avena sterilis accession P01 assessed as weed survival at 8 times field recommended herbicide dose
Avena sterilis [44] = assay: Herbicidal activity against Avena sterilis accession P13S assessed as weed survival at 1 times field recommended herbicide dose
Avena sterilis [45] = assay: Herbicidal activity against Avena sterilis accession P21S assessed as weed survival at 1 times field recommended herbicide dose
Avena sterilis [46] = assay: Herbicidal activity against Avena sterilis accession P08 assessed as weed survival at 1 times field recommended herbicide dose
Avena sterilis [47] = assay: Herbicidal activity against Avena sterilis accession P03 assessed as induction of weed mortality
Avena sterilis [48] = assay: Herbicidal activity against Avena sterilis accession P13S assessed as weed survival at 1/8 times field recommended herbicide dose
Avena sterilis [49] = assay: Herbicidal activity against Avena sterilis accession P22 assessed as weed survival at 8 times field recommended herbicide dose
Avena sterilis [50] = assay: Herbicidal activity against Avena sterilis accession P13S assessed as weed survival at 1/32 times field recommended herbicide dose
Avena sterilis [51] = assay: Herbicidal activity against Avena sterilis accession P20 assessed as weed survival at 8 times field recommended herbicide dose
Avena sterilis [52] = assay: Herbicidal activity against Avena sterilis accession P10S assessed as weed survival at 1/16 times field recommended herbicide dose
Avena sterilis [53] = assay: Herbicidal activity against Avena sterilis accession P09 assessed as weed survival at 1 times field recommended herbicide dose
Avena sterilis [54] = assay: Herbicidal activity against Avena sterilis accession P10S assessed as induction of weed mortality
Avena sterilis [55] = assay: Herbicidal activity against Avena sterilis accession P04 assessed as weed survival at 4 times field recommended herbicide dose
Avena sterilis [56] = assay: Herbicidal activity against Avena sterilis accession P13S assessed as weed survival at 1/4 times field recommended herbicide dose
Avena sterilis [57] = assay: Herbicidal activity against Avena sterilis accession P06S assessed as weed survival at 1/16 times field recommended herbicide dose
Avena sterilis [58] = assay: Herbicidal activity against Avena sterilis accession P15 assessed as induction of weed mortality

SMILES: CCO/N=C(\CC)C1=C(O)CC(c2c(C)cc(C)cc2C)CC1=O (stereo not drawn) [TRALKOXYDIM]
- Survival (Avena sterilis [1]): 0%
- GR50 (Avena sterilis [2]): 907 gAi/ha
- Survival (Avena sterilis [3]): 0%
- GR50 (Avena sterilis [4]): 532 gAi/ha
- Survival (Avena sterilis [5]): 77%
- Survival (Avena sterilis [6]): 17%
- Survival (Avena sterilis [7]): 43%
- GR50 (Avena sterilis [8]): <400 gAi/ha
- Survival (Avena sterilis [9]): 20%
- Survival (Avena sterilis [10]): 20%
- Survival (Avena sterilis [11]): 0%
- Survival (Avena sterilis [12]): 60%
- GR50 (Avena sterilis [13]): 1073 gAi/ha
- Survival (Avena sterilis [14]): 0%
- GR50 (Avena sterilis [15]): <400 gAi/ha
- Survival (Avena sterilis [16]): 10%
- Survival (Avena sterilis [17]): 20%
- Survival (Avena sterilis [18]): 0%
- Survival (Avena sterilis [19]): 13%
- Survival (Avena sterilis [20]): 0%
- Survival (Avena sterilis [21]): 23%
- Survival (Avena sterilis [22]): 77%
- Survival (Avena sterilis [23]): 0%
- Survival (Avena sterilis [24]): 97%
- Survival (Avena sterilis [25]): 0%
- Survival (Avena sterilis [26]): 0%
- Survival (Avena sterilis [27]): 0%
- Survival (Avena sterilis [28]): 100%
- Survival (Avena sterilis [29]): 0%
- GR50 (Avena sterilis [30]): 2916 gAi/ha
- GR50 (Avena sterilis [31]): <400 gAi/ha
- Survival (Avena sterilis [32]): 97%
- GR50 (Avena sterilis [33]): 32 gAi/ha
- GR50 (Avena sterilis [34]): 412 gAi/ha
- Survival (Avena sterilis [35]): 40%
- Survival (Avena sterilis [36]): 0%
- Survival (Avena sterilis [37]): 0%
- Survival (Avena sterilis [38]): 0%
- Survival (Avena sterilis [39]): 40%
- Survival (Avena sterilis [40]): 0%
- Survival (Avena sterilis [41]): 40%
- Survival (Avena sterilis [42]): 20%
- Survival (Avena sterilis [43]): 20%
- Survival (Avena sterilis [44]): 0%
- Survival (Avena sterilis [45]): 20%
- Survival (Avena sterilis [46]): 63%
- GR50 (Avena sterilis [47]): 1561 gAi/ha
- Survival (Avena sterilis [48]): 23%
- Survival (Avena sterilis [49]): 20%
- Survival (Avena sterilis [50]): 93%
- Survival (Avena sterilis [51]): 40%
- Survival (Avena sterilis [52]): 40%
- Survival (Avena sterilis [53]): 60%
- GR50 (Avena sterilis [54]): 29 gAi/ha
- Survival (Avena sterilis [55]): 77%
- Survival (Avena sterilis [56]): 20%
- Survival (Avena sterilis [57]): 60%
- GR50 (Avena sterilis [58]): 735 gAi/ha
